These results are taken from ChEMBL document CHEMBL1149707, “Structure-activity relationship studies of carboxamido-biaryl ethers as opioid receptor antagonists (OpRAs). Part 1” (Bioorg Med Chem Lett, 2007).

One may read the pKi as −log10 of the Ki, conventionally taken in molar units. What is called Kb is the equilibrium dissociation constant of an antagonist, usually derived from a functional assay. Read a low Kb as a more potent antagonist.

For assay [1], the target named is T1, Delta-type opioid receptor (Homo sapiens, UniProt P41143). Briefly: Displacement of [3H]bremazocine from human delta opioid receptor expressed in CHO cells in presence of high sodium by SPA. In kind it is cell-based.
T1 sequence (P41143 whole entry): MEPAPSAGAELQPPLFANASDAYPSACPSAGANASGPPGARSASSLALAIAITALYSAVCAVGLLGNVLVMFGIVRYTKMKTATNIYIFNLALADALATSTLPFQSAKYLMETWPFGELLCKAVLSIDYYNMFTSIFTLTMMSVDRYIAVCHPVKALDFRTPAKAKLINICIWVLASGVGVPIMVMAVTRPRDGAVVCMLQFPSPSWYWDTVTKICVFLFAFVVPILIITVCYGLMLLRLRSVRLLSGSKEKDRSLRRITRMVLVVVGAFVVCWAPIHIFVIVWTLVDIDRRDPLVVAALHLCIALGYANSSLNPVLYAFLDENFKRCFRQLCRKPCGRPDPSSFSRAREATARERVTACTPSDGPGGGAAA
For assay [2], the target named is T2, Mu-type opioid receptor (Homo sapiens, UniProt P35372). Briefly: Displacement of [3H]diprenorphine from human mu opioid receptor expressed in CHO cells in presence of high sodium by SPA. The class given is cell-based. (In general: Loss of bound radioactivity is the signal in a displacement assay; it reports binding, not function.)
T2 sequence (P35372 whole entry): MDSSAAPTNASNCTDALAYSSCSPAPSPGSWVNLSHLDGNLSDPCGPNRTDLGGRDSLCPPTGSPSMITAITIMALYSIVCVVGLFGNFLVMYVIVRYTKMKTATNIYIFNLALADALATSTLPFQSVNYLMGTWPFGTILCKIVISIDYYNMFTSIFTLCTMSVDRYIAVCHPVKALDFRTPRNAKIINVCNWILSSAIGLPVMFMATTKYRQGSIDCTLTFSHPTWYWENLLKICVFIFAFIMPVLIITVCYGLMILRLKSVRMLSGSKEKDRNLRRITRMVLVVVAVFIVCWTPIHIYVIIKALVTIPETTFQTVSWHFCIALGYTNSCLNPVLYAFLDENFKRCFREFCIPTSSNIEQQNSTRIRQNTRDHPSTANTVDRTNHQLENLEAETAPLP
Assay [3] concerns the target T3, Kappa-type opioid receptor (Homo sapiens, UniProt P41145). In words: Displacement of [3H]diprenorphine from human kappa opioid receptor expressed in CHO cells in presence of high sodium by SPA. In kind it is cell-based.
Assay [4] deals with T2, Mu-type opioid receptor. In words: Antagonist activity at human mu opioid receptor expressed in CHO cells by [35S]GTP-gamma-S binding assay. In kind it is functional, cell-based. Background: Binding of GTPγS marks nucleotide exchange on a G protein.
Assay [5] addresses T3, Kappa-type opioid receptor. Briefly: Antagonist activity at human kappa opioid receptor expressed in CHO cells by [35S]GTP-gamma-S binding assay. In kind it is functional, cell-based.
Assay [6] deals with T1, Delta-type opioid receptor. Briefly: Antagonist activity at human delta opioid receptor expressed in CHO cells by [35S]GTP-gamma-S binding assay. The class given is functional, cell-based.

pKi: −log10 of the molar value.

T3 sequence (P41145 whole entry): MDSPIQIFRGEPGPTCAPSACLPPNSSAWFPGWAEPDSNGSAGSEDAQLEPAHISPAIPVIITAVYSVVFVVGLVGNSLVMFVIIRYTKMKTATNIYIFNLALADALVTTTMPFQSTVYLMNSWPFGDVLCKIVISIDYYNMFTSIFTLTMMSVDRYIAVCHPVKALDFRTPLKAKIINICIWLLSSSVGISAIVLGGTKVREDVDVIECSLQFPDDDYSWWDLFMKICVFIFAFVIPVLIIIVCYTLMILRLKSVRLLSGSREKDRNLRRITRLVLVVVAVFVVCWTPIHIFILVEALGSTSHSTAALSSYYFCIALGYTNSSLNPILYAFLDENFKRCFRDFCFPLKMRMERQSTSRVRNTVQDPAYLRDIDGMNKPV

Take `CNC(=N)c1ccc(Oc2ccc(CNCCc3ccccc3)cc2)nc1`: the pKi was 5.46 in assay [1], 6.63 at Mu-type opioid receptor [2] and less than 5.30 in assay [3].
The like results for `NC(=O)c1ccnc(Oc2ccc(CCNCc3ccccc3)cc2)c1` were, in that order, less than 5.30, less than 5.60 and less than 5.30.
Take `NC(=O)c1cccnc1Oc1ccc(CCNCc2ccccc2)cc1`: the results for the pKi (in assay [1]; on Mu-type opioid receptor [2]; in assay [3]) were less than 5.30, less than 5.60 and less than 5.30, respectively.
Consider `NC(=O)c1ccc(Oc2ccc(CCCNCc3ccccc3)cc2)nc1`, for which the pKi on Mu-type opioid receptor [4] was 7.65; in assay [5] it was 7.34. The compound further showed a Kb in assay [6] of 496 nM.
Regarding `NC(=O)c1ccc(Oc2ccc(NCCCc3ccccc3)cc2)nc1`, the negative logarithm of the Ki (pKi) (at Mu-type opioid receptor [4]; in assay [5]) was less than 6.00 in each case. The compound further yielded a Kb in assay [6] greater than 1000 nM.
As for `NC(=O)c1ccc(Oc2ccc(CCNCCc3ccccc3)cc2)nc1`, the pKi was 7.78 at Mu-type opioid receptor [4] and 7.63 in assay [5]. This compound yielded a Kb in assay [6] of 128 nM.
Consider `NC(=O)c1ccc(Oc2ccc(CCCNc3ccccc3)cc2)nc1`, for which the pKi (at Mu-type opioid receptor [4]; in assay [5]) was less than 6.00 in each case. This compound also showed a Kb in assay [6] greater than 1000 nM.
With `NC(=O)c1ccc(Oc2ccc(CNCCc3ccccc3)cc2)nc1`, the pKi was 10.15 at Mu-type opioid receptor [4] and 9.77 on Mu-type opioid receptor [2].
With `NC(=O)c1ccc(Oc2ccc(CCNCc3ccccc3)cc2)nc1`, the pKi is 7.15 in assay [1]; 8.65 at Mu-type opioid receptor [4]; 7.73 in assay [5]; 8.13 on Mu-type opioid receptor [2]; 6.87 in assay [3]. This compound also came in with a Kb in assay [6] of 23.1 nM.
As to `NC(=O)c1ccc(Oc2ccc(CCNCCCc3ccccc3)cc2)nc1`, the pKi is 7.73 on Mu-type opioid receptor [4] and 7.62 in assay [5]. The same compound yielded a Kb in assay [6] of 212 nM.
In the case of `C[C@H]1CN(CC[C@H](O)C2CCCCC2)CC[C@@]1(C)c1cccc(O)c1`, the pKi in assay [1] is 8.32. This compound also displayed a Kb in assay [6] of 1.19 nM.
For `NC(=O)c1cccc(Oc2ccc(CCNCc3ccccc3)cc2)n1`, the pKi in assay [1] is less than 5.30; on Mu-type opioid receptor [2], 6.19; in assay [3], less than 5.30.
For the compound `N=C(N)c1ccc(Oc2ccc(CNCCc3ccccc3)cc2)nc1`, the figures for the pKi (in assay [1]; on Mu-type opioid receptor [2]; in assay [3]) were 6.67, 7.69 and 5.94, respectively.
For `NC(=O)c1ccc(Oc2ccc(CNCCc3ccccc3)cc2)cc1`, the pKi is 8.91 in assay [5] and 7.82 in assay [3].
Turning to `NC(=O)c1ccc(Oc2ccc(CNCCc3ccccc3)cc2)cn1`, the pKi in assay [1] is 8.07; at Mu-type opioid receptor [4], 9.36; in assay [5] it was 8.02; on Mu-type opioid receptor [2] it was 8.75; in assay [3], 7.16. In addition, the Kb in assay [6] turned out to be 2.86 nM.
For `NS(=O)(=O)c1ccc(Oc2ccc(CCNCc3ccccc3)cc2)cc1`, the figures for the negative logarithm of the Ki (pKi) (in assay [1]; on Mu-type opioid receptor [2]; in assay [3]) were less than 5.30, less than 5.60 and less than 5.30, respectively.
On to `CCNC(=O)c1ccc(Oc2ccc(CNCCc3ccccc3)cc2)nc1`, for which the values for the pKi (in assay [1]; on Mu-type opioid receptor [2]; in assay [3]) were 6.17, 7.24 and 5.55, respectively.
The like results for `NCc1ccc(Oc2ccc(CCNCc3ccccc3)cc2)nc1` were, in that order, less than 5.30, less than 5.60 and less than 5.30.
In the case of `CNC(=O)c1ccc(Oc2ccc(CNCCc3ccccc3)cc2)nc1`, the pKi was 6.14 in assay [1], 7.28 on Mu-type opioid receptor [2] and less than 5.30 in assay [3].
With `O=C(O)c1ccc(Oc2ccc(CCNCc3ccccc3)cc2)nc1`, the pKi in assay [1] was less than 5.30; at Mu-type opioid receptor [2], less than 5.60; in assay [3], less than 5.30.
Regarding `CC(C)NC(=O)c1ccc(Oc2ccc(CNCCc3ccccc3)cc2)nc1`, the pKi in assay [1] was 5.62; at Mu-type opioid receptor [2], 7.28; in assay [3] it was less than 5.30.
As for `NC(=O)c1ccc(Oc2ccc(CNCc3ccccc3)cc2)nc1`, the figures for the pKi (on Mu-type opioid receptor [4]; in assay [5]) were 8.39 and 8.61, respectively. This compound also displayed a Kb in assay [6] of 54.1 nM.
As for `O=C(c1ccc(Oc2ccc(CNCCc3ccccc3)cc2)nc1)N1CCCCC1`, the negative-log Ki (pKi) is less than 5.30 in assay [1], 6.41 at Mu-type opioid receptor [2] and less than 5.30 in assay [3].
As for `N#Cc1ccc(Oc2ccc(CCNCc3ccccc3)cc2)nc1`, the values for the pKi (in assay [1]; at Mu-type opioid receptor [2]; in assay [3]) were less than 5.30, 5.97 and less than 5.30, respectively.
